Data set [1] deals with bacteria (quantitative bacterial cultures). The experiment in a line: Quantitative bacterial cultures, in vivo reimplantation of decontaminated fracture fragment (Example 4). Details: species or system canine. The conditions noted are these: individual dogs. As for the experimental part:
(§1) A grade 3 open femoral bicondylar fracture was created in 3 canines. A lateral parapatellar approach was used, the fragment was cultured and retrieved. The fragment was irrigated, treated with 0.002% chlorhexidine for 20 minutes, irrigated, and stored in MOPS® for 7 days, after which the fragment was reimplanted, and both condyles were repaired with 3.5 mm cannulated lag screws. After 3 months, quantitative bacterial cultures (CFU/g; Table 2) and functional outcomes (Table 3) were measured.

The test system of data set [2] is contaminated human femoral osteochondral allografts. The conditions noted are these: 0.002% chlorhexidine gluconate, pulse lavage (1 L) / immediate intraoperative treatment, cited from earlier work.
Data set [3] relates to chondrocytes of osteoarticular fracture fragments. The data set can be described thus: Viable chondrocyte density / % VCD, live-dead assay (Example 5). Type of data set: cell-based. The following applies: for % VCD (percentage of mean VCD of healthy day-0 samples): 20 min immersion (10% povidone-iodine or 0.002% chlorhexidine gluconate). As to the method:
Skeletally mature purpose-bred research hounds (n=16) were humanely euthanized for purposes unrelated to the present study. Immediately following euthanasia, each dog was positioned in sternal recumbency with one forelimb extended and secured in a custom-made positioning apparatus. Fur was not clipped and no aseptic preparation or decontamination techniques were performed. Using a validated technique, a penetrating captive bolt stunner pistol (CASH Special, FRONTMATEC, Birmingham, United Kingdom) with a 1.25 grain cartridge was centered on the cranial (anterior) aspect of the distal humerus, immediately proximal to the elbow joint and with firm pressure against the secured elbow, the pistol was discharged, creating type 3 open distal humeral fractures. After the fractures were induced and radiographs obtained, the skin and soft tissues were aseptically removed. For each elbow (n=32), osteoarticular tissues were obtained from the distal humerus, proximal radius and proximal ulna such that 96 contaminated, devascularized, osteoarticular fracture fragments were randomly allocated to undergo treatment using one of the following protocols for comparison: 1)⋅Betadine (n=42): bulb irrigation using 1 L of 0.9% saline, followed by immersion in 10% povidone-iodine solution for 20 min, followed by bulb irrigation using 1 L of 0.9% saline; 2)⋅Chlorhexidine (n=42): bulb irrigation using 1 L of 0.9% saline, followed by immersion in 0.002% chlorhexidine gluconate solution immersion for 20 min, followed by bulb irrigation using 1 L of 0.9% saline; and 3)⋅Injured Control (n=12): no decontamination treatment. Each fragment was then immediately placed in 200 ml of Missouri Osteochondral Preservation System (MOPS®) solution in individual sterile closed containers, transported to the on-site laboratory and placed in a dedicated storage cabinet in standard room temperature and humidity conditions for 7 or 14 days.
Viable Chondrocyte Density. At days 7 (n=21) or 14 (n=21) of storage, osteoarticular tissues were collected and processed for assessment of viable chondrocyte density (VCD). VCD was assessed using a live-dead assay involving calcein AM (live stain) and ethidium homodimer (dead stain). Briefly, tissues were sagittally sectioned using a Buchler Isomet low speed saw (Lake Bluff, IL, USA) to produce representative 1 mm-thick sections from each. Sections were placed in 6-well plates containing calcein AM (1 μg/ml) solution and ethidium homodimer (1 μM) in Phosphate Buffered Saline (PBS). The plates were incubated for 30 minutes at 37° C. After incubation, the stain was removed, the samples rinsed in PBS and tissues were mounted to the bottom of the plate using a 4% agarose solution. Fluorescent microscopy was used to obtain two images per section, which were analyzed to quantify tissue viability based on VCD. The VCD was determined by counting the number of viable cells in each image and dividing this by the area of the tissue in the image (#of viable cells/area of cartilage tissue mm^2). The percentage of viable chondrocyte density (% VCD) for each fracture fragment was calculated based on the mean VCD of healthy day-0 samples using the formula: (fractured VCD/control VCD)×100.
Statistical Analysis. All data were analyzed using statistical software R Studio, version 4.3.1 (Posit Software, Boston, MA, USA). Descriptive statistics for VCD, % VCD and CFU were calculated to report means, standard deviations, ranges and percentages. […]

Data set [4] has as its system cells in bone. The following applies: decontamination with 2% chlorhexidine gluconate; cited from earlier work.
Data set [5] has as its system canines with grade 3 open femoral bicondylar fracture. The data set can be described thus: Functional outcomes after reimplantation of decontaminated fracture fragment (Example 4). Type of data set: in vivo, canine. As for the experimental part: as §1
[6] abbreviates: 3 months after reimplantation of fragment treated with 0.002% chlorhexidine and stored in MOPS 7 days.

SMILES strings stand for the structures. Values joined by “and” are separate entries in the source; they are usually repeats but may differ in a detail not shown here. Equal values may be shown once. Read-outs that look alike come from different tables or passages of the source.

In the case of `[H]/N=C(\N/C(=N/[H])NCCCCCCNC(=N)NC(=N)Nc1ccc(Cl)cc1)Nc1ccc(Cl)cc1` [Chlorhexidine, chlorhexidine gluconate], in data set [1] (3 months after reimplantation), the “quantitative bacterial culture, Endpoint, Fracture Fragment” value was 0 CFU/g and the “quantitative bacterial culture, Endpoint, Synovium” value was determined as 0 CFU/g. In addition, the “quantitative bacterial culture, Reimplantation, MOPS Media” value in data set [1] (after 0.002% chlorhexidine 20 min and 7 days storage in MOPS) is listed as 0 CFU/g. Besides, the “quantitative bacterial culture, Initial Trauma, Fracture Fragment” value in data set [1] (baseline, before 0.002% chlorhexidine treatment) is 355 CFU/g and 0 CFU/g and 41 CFU/g. Also, the “quantitative bacterial culture, Initial Trauma, Synovium” value in data set [1] (baseline, before treatment) is 0 CFU/g (2×) and 119 CFU/g. For the same compound, the “decontamination of contaminated osteochondral allografts” value in data set [2] (listed as Chlorhexidine Gluconate) was “effective decontamination”. Also, the “decontamination of contaminated osteochondral allografts” value in data set [2] (listed as chlorhexidine gluconate) was “effective for complete decontamination”. Besides, the “maintenance of minimum essential chondrocyte viability (in words)” value in data set [3] (0.002% chlorhexidine immersion 20 min, shelf-stable storage in MOPS) is on record as “maintaining minimum essential chondrocyte viability for up to 14 days”. Besides, the “% VCD (percentage of mean VCD of healthy day-0 samples)” value in data set [3] (Day 7 of MOPS storage) is given as 75.7 ± 24.2%. For the same compound, in data set [3] (Day 14 of MOPS storage), the “% VCD (percentage of mean VCD of healthy day-0 samples)” value came to 70.1 ± 24.1%. Moreover, the “% VCD compared with other groups (in words)” value in data set [3] (days 7 and 14) was “significantly (p<0.001) higher than for the Betadine and Injured Control groups”. Further, in data set [3] (days 7 and 14 of MOPS storage), the “mean % VCD versus minimum essential threshold” value is reported as greater than 70%. For the same compound, in data set [4], the “cell viability in bone” value is on record as “complete loss of cell viability”. Also, in data set [5] (setting [6]), the “Function (VAS) Post” value was 9 and 8.8 and 9.3; the “ROM Post” value was 101 degrees and 97 degrees and 104 degrees. For the same compound, in data set [5] (Post, individual dogs), the “Pain (VAS) Post” value stood at 0. Besides, the “Pain (VAS) Pre” value in data set [5] (Pre, individual dogs) was 1.2 and 1.9 and 0.6. In data set [5] (baseline, individual dogs), the “Function (VAS) Pre” value was 10; the “ROM Pre” value was 108 degrees and 107 degrees and 109 degrees.

These data come from patent US20250255293A1, “TISSUE DECONTAMINATION AND PRESERVATION SYSTEM” (priority 2024, published 2025).
